Where a name gives a salt, the structure may show the parent alone. Where only a bound is given, the exact number is not on record here.

In patent US11560400B2, “Salts of diphosphate phosphoramidate of nucleosides as anticancer compounds” (NuCana plc, priority 2017, dated 2023) one finds EC50 and inhibition data, which are given here for 3 compounds.

One assay has as its system HepG2. The experiment in a line: CellTiterGlo cell viability assay, HepG2. The assay is classed as cell-based. As to conditions: Homo sapiens, HepG2, 72 h; for EC50: Table 4 classes, read-out: Ab EC50; for inhibition at 198 µM: percentage inhibition at the highest concentration tested, read-out: Top Inhibit. The method, then:
(§1) A subset of compounds of the invention were assayed for their cytotoxic activity in an array of different solid tumours and haematological malignancies using the following assay.
(§2) In vitro viability assay were performed to assess the effects of compounds on cell viability in selected cell lines over 72 h using the CellTiterGlo (CTG, Promega-G7573) assay. The tests were performed in duplicates with treatment of compounds at 9 points, 3.16 folds titration in 96 well plates over ˜72 h. The compound starting concentrations were 198 μM. Cell viability assay using CellTiterGlo in 96-well plate were performed. Compound treatment 72 h, standard growth conditions, duplicates. Compounds were dissolved to 40 mM with thawed […]. Compounds were serially diluted at 3.16 fold in thawed DMSO, and warmed to 37° C. before being dissolved in media (2 μL+200 μL). After compounds were dissolved in media, media containing compounds were warmed to 37° C. in incubator and then compounds in media were added to cell plates (50 μL+50 μL) in duplicates. The compounds' final concentrations were from 198 μM to 19.8 nM. All compound solubilities were checked and recorded again, then the plates were transferred to CO2 tissue culture incubator immediately and incubated for 3 days. DMSO final concentration is 0.5%. The parent nucleoside in each case was tested as a comparator, as was an exemplary ProTide. The drugs of the ProTide class that were tested were as follows:
(§3) The following cell lines were tested and are referred to in the Table 1 below:
(§4) In Tables 2, 3 and 4, ‘Ab EC50’ refers to the absolute EC50 and ‘Top inhibit’ refers to the percentage inhibition achieved at the highest concentration tested.
For orientation: Cellular ATP, detected with luciferase, serves as a proxy for viable cell number.

For the next assay, the system named is K562. The experiment in a line: CellTiterGlo cell viability assay, K562. The format is cell-based. Particulars: Homo sapiens; for inhibition at 198 µM: K562, 72 h, percentage inhibition at the highest concentration tested, read-out: Top Inh; for EC50: K562, K 562, 72 h, Table 4 classes, read-out: Ab EC50. The method, then: as §1, §2, §3, §4
A further assay has as its system MCF-7. Nature of the assay: CellTiterGlo cell viability assay, MCF-7. The assay is classed as cell-based. As to conditions: Homo sapiens, MCF7, 72 h, MCF-7, 72 h, percentage inhibition at the highest concentration tested; read-out: Top Inhibit. The method, then: as §1, §2, §3, §4
For a further assay, the system named is KG-1. The experiment in a line: CellTiterGlo cell viability assay, KG-1. As to conditions: Homo sapiens, KG-1, 72 h; for EC50: Table 4 classes, read-out: Ab EC50; for inhibition at 198 µM: percentage inhibition at the highest concentration tested, read-out: Top Inhibit. The format is cell-based. The method, then:
as §1, §2, §3, §4

In another assay the test system is RL. Nature of the assay: CellTiterGlo cell viability assay, RL. The format is cell-based. Particulars: Homo sapiens, 72 h; for inhibition at 198 µM: percentage inhibition at the highest concentration tested, read-out: Top Inh. The method, then: as §1, §2, §3, §4
The next assay has as its system CCRF-CEM. The experiment in a line: CellTiterGlo cell viability assay, CCRF-CEM. The format is cell-based. As to conditions: Homo sapiens, 72 h; for EC50: Table 4 classes, read-out: Ab EC50; for inhibition at 198 µM: percentage inhibition at the highest concentration tested, read-out: Top Inh. The method, then: as §1, §2, §3, §4
The subject of a further assay is OVCAR 3. The experiment in a line: CellTiterGlo cell viability assay, OVCAR 3. The format is cell-based. As to conditions: Homo sapiens; for inhibition at 198 µM: OVCAR-3, 72 h, percentage inhibition at the highest concentration tested, read-out: Top Inhibit; for EC50: OVCAR 3, 72 h, Table 4 classes, read-out: Ab EC50. The method, then: as §1, §2, §3, §4
For another assay, the system named is HT29. The experiment in a line: CellTiterGlo cell viability assay, HT29. The format is cell-based. Particulars: Homo sapiens, HT-29, 72 h, HT29, 72 h; for EC50: Table 4 classes, read-out: Ab EC50; for inhibition at 198 µM: percentage inhibition at the highest concentration tested, read-out: Top Inhibit. The method, then:
as §1, §2, §3, §4

For a further assay, the system named is HL-60. The experiment in a line: CellTiterGlo cell viability assay, HL-60. As to conditions: Homo sapiens, HL-60, 72 h; for EC50: Table 4 classes, read-out: Ab EC50; for inhibition at 198 µM: percentage inhibition at the highest concentration tested, read-out: Top Inh. The assay is classed as cell-based. The method, then: as §1, §2, §3, §4
The next assay concerns MOLT-4. The experiment in a line: CellTiterGlo cell viability assay, MOLT-4. Particulars: Homo sapiens, MOLT-4, 72 h; for inhibition at 198 µM: percentage inhibition at the highest concentration tested, read-out: Top Inh; for EC50: Table 4 classes, read-out: Ab EC50. The assay is classed as cell-based. The method, then: as §1, §2, §3, §4
For the next assay, the system named is RPMI-8226. The experiment in a line: CellTiterGlo cell viability assay, RPMI-8226. As to conditions: Homo sapiens, RPMI-8226, 72 h; for EC50: Table 4 classes, read-out: Ab EC50; for inhibition at 198 µM: percentage inhibition at the highest concentration tested, read-out: Top Inh. The format is cell-based, Human. The method, then:
as §1, §2, §3, §4

Take `CC(C)C[C@H](NP(=O)(Oc1ccccc1)OP(=O)(O)OC[C@H]1O[C@@H](n2cnc3c(N)nc(Cl)nc32)[C@H](F)C1O)C(=O)OCc1ccccc1` (stereo partly drawn) [Example 21, 2-Chloro-9-(2′-Deoxy-2′-fluoro-β-D-arabinofuranosyl)adenine-5′-O-[1-phenyl(benzoxy-L-leucinyl)] Diphosphate Triethylammonium Salt]: the EC50 – broadly, the concentration that produces a half-maximal response – was 200 to 1000 nM in the assay with HepG2; more than 10000 nM in the assay on K562; less than 200 nM with KG-1; 1000 to 5000 nM in the assay on RL (Table 4 classes, read-out: Ab EC50); less than 200 nM in the assay with CCRF-CEM; more than 10000 nM with OVCAR 3. The EC50 was 200 to 1000 nM with HT29, less than 200 nM in the assay on HL-60, less than 200 nM in the assay with MOLT-4 and more than 10000 nM in the assay on RPMI-8226. Besides, the inhibition at 198 µM is 53% in the assay with HepG2; 32% in the assay with K562; 49% in the assay on MCF-7; 92% in the assay with KG-1; 70% in the assay with RL; 99% in the assay on CCRF-CEM. Besides, the inhibition at 198 µM in the assay with OVCAR 3 amounted to 47%; with HT29 it was 69%; in the assay with HL-60, 96%; in the assay with MOLT-4, 90%; in the assay with RPMI-8226, 81%.

Regarding `CCCCCCOC(=O)[C@H](C)NP(=O)(Oc1ccccc1)OP(=O)(O)OC[C@H]1O[C@@H](n2cnc3c(N)nc(Cl)nc32)[C@H](F)C1O` (stereo partly drawn) [Example 18, 2-Chloro-9-(2′-Deoxy-2′-fluoro-β-D-arabinofuranosyl)adenine-5′-O-[1-phenyl(hexoxy-L-alaninyl)] Diphosphate Triethylammonium Salt], the EC50 with HepG2 was 200 to 1000 nM; in the assay on K562 it was more than 10000 nM; with KG-1 it was less than 200 nM; in the assay on CCRF-CEM, less than 200 nM; in the assay on OVCAR 3 it was more than 10000 nM; in the assay with HT29, 200 to 1000 nM. Also, the EC50 in the assay with HL-60 is less than 200 nM; with MOLT-4, less than 200 nM; in the assay with RPMI-8226, more than 10000 nM. Further, the inhibition at 198 µM in the assay with HepG2 was found to be 53%; with K562, 40%; in the assay with MCF-7, 44%; in the assay on KG-1 it was 91%; in the assay on RL, 48%; in the assay with CCRF-CEM, 99%. Moreover, the inhibition at 198 µM in the assay with OVCAR 3 came out at 47%; with HT29, 66%; in the assay with HL-60, 96%; with MOLT-4 it was 88%; in the assay on RPMI-8226, 84%.

Consider `Nc1nc(Cl)nc2c1ncn2[C@@H]1O[C@H](COP(=O)(O)OP(=O)(N[C@@H](Cc2ccccc2)C(=O)OCc2ccccc2)Oc2ccccc2)C(O)[C@H]1F` (stereo partly drawn) [Example 22, 2-Chloro-9-(2′-Deoxy-2′-fluoro-β-D-arabinofuranosyl)adenine-5′-O-[l-phenyl(benzoxy-L-phenylalaninyl)] Diphosphate Triethylammonium Salt], for which the inhibition at 198 µM was determined as 47% with HepG2; 62% with K562; 50% in the assay with MCF-7; 92% in the assay with KG-1; 42% in the assay on RL; 99% in the assay on CCRF-CEM. In addition, the inhibition at 198 µM with OVCAR 3 was determined as 73%; with HT29 it was 69%; in the assay with HL-60, 95%; in the assay on MOLT-4, 89%; with RPMI-8226, 86%. Further, the EC50 is more than 10000 nM with K562; less than 200 nM in the assay with KG-1; less than 200 nM in the assay with CCRF-CEM; more than 10000 nM in the assay with OVCAR 3; 200 to 1000 nM in the assay with HT29; less than 200 nM in the assay with HL-60. Further, the EC50 in the assay on MOLT-4 was less than 200 nM; with RPMI-8226, 1000 to 5000 nM.
